# Data as given in the METLIN SMRT retention time set (Domingo-Almenara et al. 2019).
# Assay: gradient 5% acetonitrile 3 min, to 50% in 2 min, to 85% in 15 min, held 3 min, 100 µL/min
# Details: column: Zorbax Extend-C18 2.1 x 50 mm; eluents: water / acetonitrile, 0.1% formic acid
# In short: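 Values are retention times taken from adduct peaks that software picked and an analyst inspected. The pure standards were run as mixtures of ~100 molecules on HPLC linked to a quadrupole time-of-flight mass spectrometer, in positive and negative ionization mode. A Zorbax Extend-C18 column (2.1 × 50 mm, 1.8 μm) was used at 100 μL/min with water and acetonitrile, each including 0.1% formic acid.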
row,SMILES,RP-LC retention time [s]
1,CCOc1ccc(-c2noc(Cc3nc(-c4ccc5c(c4)OCO5)cs3)n2)cc1,1200
2,COc1ccc(-c2ccnc3nc(-c4cccs4)nn23)cc1,892
3,COc1ccc2[nH]cc(CCNC(=O)Cn3nc(C)c4nn(-c5ccccc5)c(C)c4c3=O)c2c1,817
4,COc1ccc(Cc2nc3nccc(-c4ccsc4)n3n2)cc1,897
5,CCOc1ccc(N2CC(C#N)=C3c4cc(OC)c(OC)cc4CCN3C2)cc1,848
6,Cn1cc(-c2cc3n(n2)CCCN3C(=O)CCC(=O)N2CCN(c3ccccc3)CC2)c2ccccc21,840
7,COC(=O)c1cnn2c(C)c(Cc3ccccc3)c(C)nc12,835
8,Cc1noc(C2CN(C(=O)Nc3ccc(F)cc3F)CC23CCOCC3)n1 (stereo not drawn),695
9,CC(C)NC(=O)c1nsc(C(=O)N2CCN(c3ncccn3)CC2)c1N,764
10,COc1ccc(NC(=O)C2CCN(S(=O)(=O)c3cc4c(cc3C)NC(=O)CO4)CC2)cc1,754
11,Cc1nc2c(c(=O)n1CC(=O)NCc1ccccc1Br)CCN(Cc1ccccc1)C2,650
12,Cc1nc(-c2cn(C)c3ncccc23)sc1C(=O)Nc1cc(F)ccc1F,944
13,O=C(NC1CC1)c1ccc(OCC2CCN(C(=O)c3ccc(F)c(Cl)c3)CC2)cc1,870
14,O=C1CN(Cc2ccc(OC(F)(F)F)cc2)C2(CCCC2)CN1,682
15,Cn1nc(-c2nnc(-c3ccccc3)o2)c2c1CCN(S(=O)(=O)c1ccc(C#N)cc1)C2,897
16,CC(=O)OCC(=O)[C@@]1(O)CCC2C3CCC4=CC(=O)CC[C@]4(C)C3=CC[C@@]21C (stereo partly drawn),776
17,Cc1ccc(CN2CCNCC2)cc1NC(=O)CNc1ccc(F)c(F)c1,639
18,COC(=O)c1ccc(CSc2nnc(NC(=O)C3(c4cccs4)CCCC3)s2)o1,978
19,Cc1ccc(S(=O)(=O)Nc2ccc3c(c2)CCC(=O)N3C)cc1Cl,1000
20,COc1ccc(NC(=O)CCc2cccc3[nH]ccc23)c(C)c1,805
21,COc1ccc(C(=O)Nc2nnc(SCc3nnc(-c4ccccc4C)o3)s2)cc1OC,898
22,O=C(Nc1cccc(Cl)c1)N1CCC(n2c(-c3ccco3)nc3cccnc32)C1 (stereo not drawn),800

row,SMILES,RP-LC retention time [s]
1,CCOc1ccc(-c2noc(Cn3c(=O)n(-c4ccccc4F)c(=O)c4sccc43)n2)cc1OC,945
2,O=C(c1cc[nH]c(=O)c1)N1C[C@@H](COCC2CC2)[C@H](c2ccncc2)C1,555
3,COCCNCc1ccc(-c2cc(Cl)cc(Cl)c2)o1,722
4,Cn1nc(CN(C(=O)c2ccc(F)cc2)c2ccccc2)c2c1CCN(S(C)(=O)=O)C2,721
5,CCOc1ccccc1C(=O)Nc1cccn2c(C)nnc12,790
6,CC(C)(C)c1noc(-c2ccnc(-n3cnc(C(=O)NCC4CC4)c3)c2)n1,1110
7,CC(C)NC(=O)c1ccc(OCC2CCCN(C(=O)c3ccccc3Cl)C2)cc1 (stereo not drawn),876
8,O=C(Cc1ccsc1)N1CCC(n2c(-c3ccco3)nc3cccnc32)C1 (stereo not drawn),689
9,COc1cc(NC(=O)c2ccccn2)ccc1Cl,994
10,Cc1noc(-c2nn(C)c3c2CN(C(=O)Nc2ccc(F)cc2)CC3)n1,723
11,C=CCn1c(=O)c2cnc(Nc3ccc(N4CCN(C)CC4)cc3)nc2n1-c1cccc(C(C)(C)O)n1,644
12,Cc1c(C(=O)NC2CC2)cnn1-c1cc(-c2nc(C3CC3)no2)ccn1,843
13,Cc1nc(N2CCCC2)c2c(C(=O)Nc3ccc(C)c(F)c3)c(C)oc2n1,836
14,O=C(NCc1ccco1)c1nc2ccccn2c1-c1ccccc1,783
15,CCc1ccc(S(=O)(=O)N2CCC(c3nc(C(=O)N4CCOCC4)c(C)o3)CC2)cc1,904
16,Cn1c(=O)c2c(nc(/C=C/c3cccc(Cl)c3)n2C)n(C)c1=O,1040
17,COc1ccc(C2CCCN2C(=O)Cc2cccs2)cc1 (stereo not drawn),875
18,O=C(NCCC1=CCCCC1)C1CCCN(c2ccnc(-c3ccc(F)cc3)n2)C1 (stereo not drawn),752
19,COCCNC(=O)c1c2c(cn(-c3ccc(Cl)cc3)c1=O)C(=O)CC(C)(C)C2,856
20,Cc1cccc(Nc2c(-c3ccc(O)cc3)nc3ncccn23)c1,700
21,O=C(COc1ccccc1F)NC1CC(=O)N(C2CC2)C1 (stereo not drawn),611
22,Cn1c(N2CCCC(C(=O)N3CCN(c4ccccn4)CC3)C2)cc(=O)n(C)c1=O (stereo not drawn),578

row,SMILES,RP-LC retention time [s]
1,CCCC(=O)N1CC(=O)Nc2ccc(Br)cc2C1c1ccccc1 (stereo not drawn),892
2,COc1ccc(S(=O)(=O)CCc2noc(C(=O)NCCc3ccc(SC)cc3)n2)cc1,930
3,O=C(Cn1c(=O)c2cc(-c3ccco3)nn2c2ncccc21)Nc1ccc(F)cc1F,840
4,CCOC(=O)c1nc(NCCN(C)Cc2ccccc2)c2c(C)noc2n1,623
5,Cc1cc(Cl)ccc1S(=O)(=O)N1CCn2c(nnc2C2CCN(C(C)C)C2)C1 (stereo not drawn),629
6,Cc1ccsc1C(=O)NCC1CCCCC(=O)N1 (stereo not drawn),640
7,CCCc1nnsc1C(=O)Nc1nnc(Cc2ccc(F)cc2)o1,890
8,CCOC(=O)CCC(=O)N1CCC(Oc2nc3c(C)ccc(C)c3s2)CC1,1100
9,CCOC(=O)C1CCN(C(=O)C(C)N2C(=O)C3CCCCN3C(=O)c3ccccc32)CC1 (stereo not drawn),745
10,CCCN1C(=O)C(NC(=O)c2ccc(F)cc2)(C(F)(F)F)C2=C1CC(C)(C)CC2=O (stereo not drawn),952
11,Cc1ccc(CNC(=O)CCCN2C(=O)CCn3nc(-c4cccn4C)cc32)cc1,795
12,O=C(Cc1ccccc1F)NC1CCN(c2cc(-c3ccccc3)[nH]n2)C1 (stereo not drawn),688
13,CCCNC(=O)CC1Sc2ncccc2N(CCC)C1=O (stereo not drawn),683
14,O=C1CCCC(=O)N1CCS(=O)(=O)NCC1(c2ccccc2)CCOCC1,678
15,COc1ccccc1/C=C1\Cc2ccccc2C1=O,1140
16,CNS(=O)(=O)c1ccc(C(=O)N2CCc3ccccc3C2)o1,724
17,Cc1ccc(Nc2nc(NCc3cccnc3)nc3[nH]ncc23)cc1,540
18,CCOC(=O)Cn1c(C2CC(=O)N(Cc3ccccc3)C2)nc2ccccc21 (stereo not drawn),749
19,Cc1ccc(S(=O)(=O)N2CCc3nc(-c4ccc(F)cc4)ncc3C2)cc1Cl,1230
20,CN1C(=O)c2cc(C(=O)NCCCc3ccccc3)nn2CC1(C)C(=O)NC1CCCC1 (stereo not drawn),826
21,CC(C)n1c(=O)oc2cc(-c3noc(-c4ccc(F)cc4)n3)ccc21,1170
22,CC(C)N1C(=O)c2cccnc2Sc2cc(NC(=O)c3cccnc3)ccc21,662

row,SMILES,RP-LC retention time [s]
1,CCCCN(C)C(=O)Cn1c(C(C)NC(=O)c2ccco2)nc2ccccc21 (stereo not drawn),655
2,CCn1cc(C(=O)Nc2ccc(C)cc2)c(S(=O)(=O)N2CCSCC2)n1,887
3,COC(=O)c1cc2c(=O)n(-c3nc(-c4ccccc4)cs3)ccc2nc1C,1250
4,CCOc1ccc(N2CCn3c2nn(CC(=O)c2ccc(OC)cc2)c(=O)c3=O)cc1,773
5,Cc1c(Cl)cccc1NC(=O)C(C)C1CCN(C(=O)Nc2ccc(F)cc2)CC1 (stereo not drawn),904
6,CC(=O)c1cccc(NC(=O)Cn2nc3c4cc(-c5ccc(Cl)cc5)nn4ccn3c2=O)c1,902
7,COC(=O)c1ccc(NC(=O)C(=O)NCCc2ccc(N3CCCC3)cc2)cc1,910
8,O=C(NC1CCCc2c1[nH]c1c(Cl)cccc21)c1ccncc1 (stereo not drawn),850
9,COc1ccccc1N1CCN(CC2CN3C(=O)N(C)c4ccccc4C3=N2)CC1 (stereo not drawn),662
10,CCn1cc(S(=O)(=O)N2CC3(CCCCC3)CC2COc2ccc(OC)cc2)cn1 (stereo not drawn),1090
11,CCOc1cccc(-c2noc(-c3nn(-c4ccccc4)ccc3=O)n2)c1,942
12,CCN1CCN(c2cc(C)c3cc(NC(=O)c4ccc([N+](=O)[O-])c(C)c4)ccc3n2)CC1,621
13,CCC(=O)N1CCc2c(sc3ncnc(NCc4ccccc4)c23)C1,790
14,Cc1ccc(CN2CC(=O)N(CCc3ccccn3)C(c3cccs3)C2=O)cc1 (stereo not drawn),559
15,COc1ccc(CC(=O)N2CCC3(CC2)NC(=O)c2cc(F)ccc2N3C)cc1,768
16,O=C(C1CCCN(c2ncnc3c2nc2n3CCCCC2)C1)N1CCCc2ccccc21 (stereo not drawn),888
17,Cc1ccc(N2CCN(S(=O)(=O)c3cc(-c4cc(C)no4)cs3)CC2)c(C)c1,1240
18,COc1ccc(Cn2c(C)c(CNCCc3ccco3)c(C(=O)O)c2C)cc1,704
19,COc1ccc(-c2cn3ccn(-c4cccc(F)c4)c(=O)c3n2)cc1,821
20,COC(=O)c1cc(S(=O)(=O)N2CCCC2C(=O)Nc2cccc3ccccc23)cn1C (stereo not drawn),916
21,O=C([C@@H]1C[C@H](F)CN1C(=O)Nc1ccc(C(F)(F)F)cc1)N1CCCCC1,821
22,CC(C)n1cnc(S(=O)(=O)N2CCC(C(=O)Nc3ccccc3)CC2)c1,748
